Data on 1 molecule can be found in patent US20250281462A1, “THERAPEUTICALLY EFFECTIVE ORAL ADMINISTRATION OF A 2 ARYLBENZIMIDAZOLE” (Tranquis Therapeutics, Inc., priority 2021, published 2025).

One data set has as its system PGC-1α. Put plainly: PGC-1α protein expression in BV2 cells (Western blot). The data set is classed as cell-based, murine. The note with it: 20 μM, 24 hours. How it is done:
Frozen BV2 murine microglia cells were thawed and propagated in complete media (RPMI, 10% heat-inactivated FBS, 1% L-glutamine, 1% Pen-Strep) until the growth rate reached log phase. For protein expression analysis, DMSO (1:1000 final dilution) or TQS-168 in DMSO (1:1000 final dilution) at 20 μM was added to cell cultures. After 24 hours stimulation, supernatant was discarded and cell lysis buffer (Cell Signal) was added to adherent cells to extract protein. Total protein was quantified and normalized across all samples by BCA assays. Two replicates of untreated cultures and three replicates of TQS-168-treated cultures were investigated, with each replicate containing lysates from 5,000,000 BV2 myeloid cells. PGC1α expression was detected by Western Blot using an anti-PGC-1α antibody (SC13067, Santa Cruz Biotechnology, 1:500 dilution). Anti-[…] antibody (SC8432, Santa Cruz Biotechnology, 1:2000 dilution) was used to quantify beta-actin, a housekeeping gene whose expression level is not known to be affected by TQS-168. […] Total protein was quantified and normalized across all samples by BCA assays. PGC-1α was subsequently detected by Western Blot using an anti-PGC-1α antibody (SC13067, Santa Cruz Biotechnology, 1:500 dilution). β-actin was detected with an anti-β-actin antibody (SC8432, Santa Cruz Biotechnology, 1:2000 dilution). […]
A general note: Immunoblotting shows a protein as a band on a membrane.

The next data set has as its system IL-6. Put plainly: LPS-induced IL-6 secretion from BV2 cells (CBA assay). The class given is cell-based, murine. The note with it: 1-20 μM. Here is the method:
Lipopolysaccharide (LPS) is a natural ligand of the TLR4/CD14 complex, which is highly expressed on myeloid cells
LPS was used to induce cytokine secretion from BV-2 cells. Cells were incubated with TQS-168 at various concentrations to assess whether TQS-168 could suppress the LPS-promoted release of various cytokines from in vitro cell cultures. Cytokine secretion was measured by cytometric bead array (CBA) fluorescence-activated cell sorting (FACS).
Briefly, a vial of BV2 frozen stock (1 million cells per ml in complete medium) was thawed into 10 mL of complete medium per vial for a total of 4 vials. The vials were then centrifuged at 1800 rpm for 3 minutes to wash away freezing media. The four vials were then pooled into 25 mL of complete medium. TQS-168 was prepared in DMSO.
Cells were incubated for 24 hours in the presence of medium (negative control), LPS (positive control), DMSO+LPS (positive control, controlling additionally for presence of DMSO in the TQS-168 stock solution), or LPS+TQS-168 at final concentrations of 1 μM, 5 μM, 10 μM, and 20 μM.
After the well plates were incubated overnight for 24 hours, they were centrifuged at 1800 rpm for 5 minutes. Next, 150 μl from each well was transferred to a new set of plates, of which 50 μl was used for CBA. […]

A short description of data set [1]: Plasma and brain concentrations after single oral dose in rats. The class given is in vivo. The note with it: both sexes, Sprague-Dawley, rat, rats plasma, suspension; for AUC(0-t): plasma, po. How it is done:
Both male (n=3) and female (n=3) Sprague-Dawley rats were administered a single dose of TQS-168 by oral gavage at 50, 150, or 500 mg/kg of TQS-168. TQS-168 was prepared as a suspension with 0.5% methylcellulose in PBS.
Plasma samples were collected at 30, 60, 120, 240, and 1440 minutes after administration. Brain samples were collected in some animals at 60, 240, and 1440 minutes after the single oral dose of TQS-168 at 500 mg/kg. Samples were processed for LC-MS analysis of TQS-168 concentrations.
Cmax and AUC0-t values from the plasma tissues were calculated using PKSolver (Compute Methods Programs Biomed. 2010 September; 99(3):306-14. doi: 10.1016j.cmpb.2010.01.007. Epub 2010 Feb. 21) with the underlying data plotted FIG. 12a.

“Also recorded” adds a separate entry of the source.

A word on the AUC(0-t): it is the area under the concentration-time curve up to a stated or last time point. Read a high AUC(0-t) as high exposure. As usually defined, the Cmax is the maximum level reached in the sampled fluid or tissue. `CC(C)(C)c1ccc(-c2nc3ccccc3[nH]2)cc1` [TQS-168, 2-(4-tert-butylphenyl)-1H-benzimidazole]: in the data set with PGC-1α, the “induction of PGC-1α protein expression” value is on record as “induces PGC-1α protein expression; also recorded: induction of PGC-1α protein expression”. The “reduction of LPS-induced IL-6 secretion, dose response” value in the data set with IL-6 is recorded as “concentration-dependent; also recorded: dose-responsive inhibition”. The exposure AUC(0-t) in data set [1] (50 mg/kg, 50 mg/kg single oral dose) was 833 ng·h/mL; in data set [1] (150 mg/kg, 150 mg/kg single oral dose), 1830 ng·h/mL; in data set [1] (500 mg/kg, 500 mg/kg single oral dose) it was 3330 ng·h/mL. For the same molecule, the Cmax was 60 ng/mL in data set [1] (50 mg/kg single oral dose), 120 ng/mL in data set [1] (150 mg/kg single oral dose) and 170 ng/mL in data set [1] (500 mg/kg single oral dose).
